This note sets out measurements from US7638639B2, “Substituted pyrrolidine and related compounds” (Theravance, Inc., priority 2003, dated 2009).

What is called Ki is the dissociation constant of the complex between target and ligand, obtained from inhibition or displacement.

Assay [1] has as its target T1, hM3 muscarinic receptor subtype (Homo sapiens, UniProt P20309).
T1 construct: expressed in transfected cells
The assay can be described thus: Radioligand binding assay ([3H]-NMS displacement), hM3. As to the method: A. Membrane Preparation from Cells Expressing hM1, hM2, hM3 and hM4 Muscarinic Receptor Subtypes
CHO (Chinese hamster ovary) cell lines stably expressing cloned human hM1, hM2, hM3 and hM4 muscarinic receptor subtypes, respectively, were grown to near confluency in medium consisting of HAM's F-12 supplemented with 10% FBS (Fetal Bovine Serum) and 250 μg/mL Geneticin. The cells were grown in a 5% CO2, 37° C. incubator and lifted with 2 mm EDTA in dPBS. Cells were collected by 5 minute centrifugation at 650×g, and cell pellets were either stored frozen at −80° C. or membranes were prepared immediately. For membrane preparation, cell pellets were resuspended in lysis buffer and homogenized with a Polytron PT-2100 tissue disrupter (Kinematica AG; 20 seconds×2 bursts). Crude membranes were centrifuged at 40,000×g for 15 minutes at 4° C. The membrane pellet was then resuspended with resuspension buffer and homogenized again with the Polytron tissue disrupter. The protein concentration of the membrane suspension was determined by the method described in Lowry, O. et al., 1951, […]: 193, 265. All membranes were stored frozen in aliquots at −80° C. or used immediately. Aliquots of prepared hM5 receptor membranes were purchased directly from Perkin Elmer and stored at −80° C. until use.
B. Radioligand Binding Assay on Muscarinic Receptor Subtypes hM1, hM2, hM3, hM4 and hM5
Radioligand binding assays were performed in 96-well microtiter plates in a total assay volume of 100 μL. CHO cell membranes stably expressing either the hM1, hM2, hM3, hM4 or hM5 muscarinic subtype were diluted in assay buffer to the following specific target protein concentrations (μg/well): 10 μg for hM1, 10-15 μg for hM2, 10-20 μg for hM3, 10-20 μg for hM4, and 10-12 μg for hM5. The membranes were briefly homogenized using a Polytron tissue disruptor (10 seconds) prior to assay plate addition. Saturation binding studies for determining KD values of the radioligand were performed using L-[N-methyl-3H]scopolamine methyl chloride ([^3H]-NMS) (TRK666, 84.0 Ci/mmol, Amersham Pharmacia Biotech, Buckinghamshire, England) at concentrations ranging from 0.001 nM to 20 nM. Displacement assays for determination of Ki values of test compounds were performed with [^3H]-NMS at 1 nM and eleven different test compound concentrations. The test compounds were initially dissolved to a concentration of 400 μM in dilution buffer and then serially diluted 5× with dilution buffer to final concentrations ranging from […] to […]. The addition order and volumes to the assay plates were as follows: 25 μL radioligand, 25 μL diluted test compound, and 50 μL membranes. Assay plates were incubated for 60 minutes at 37° C. Binding reactions were terminated by rapid filtration over GF/B glass fiber filter plates (PerkinElmer Inc., Wellesley, Mass.) pre-treated in 1% BSA. Filter plates were rinsed three times with wash buffer (10 mm HEPES) to remove unbound radioactivity. Plates were then air dried, and 50 μL Microscint-20 liquid scintillation fluid (PerkinElmer Inc., Wellesley, Mass.) was added to each well. The plates were then counted in a PerkinElmer Topcount liquid scintillation counter (PerkinElmer Inc., Wellesley, Mass.). Binding data were analyzed by nonlinear regression analysis with the GraphPad Prism Software package (GraphPad Software, Inc., San Diego, Calif.) using the one-site competition model. Ki values for test compounds were calculated from observed IC50 values and the KD value of the radioligand using the Cheng-Prusoff equation (Cheng Y; Prusoff W H. (1973) Biochemical Pharmacology, 22(23):3099-108). Ki values were converted to pKi values to determine the geometric mean and 95% confidence intervals. These summary statistics were then converted back to Ki values for data reporting.

Assay [2] deals with methacholine-induced decrease in mean arterial pressure. The experiment in a line: Methacholine-induced depressor responses in conscious guinea pigs. To be noted: guinea pig, inhalation. Type of assay: in vivo. An excerpt:
Methacholine-Induced Depressor Responses in Conscious Guinea Pigs
Healthy, adult, male Sprague-Dawley guinea pigs (Harlan, Indianapolis, Ind.), weighing between 200 and 300 g were used in these studies. Under isoflurane anesthesia (to effect), animals were instrumented with common carotid artery and jugular vein catheters (PE-50 tubing). The catheters were exteriorized utilizing a subcutaneous tunnel to the subscapular area. All surgical incisions were sutured with 4-0 Ethicon Silk and the catheters locked with heparin (1000 units/mL). Each animal was administered saline (3 mL, SC) at the end of surgery as well as buprenorphine (0.05 mg/kg, IM). Animals were allowed to recover on a heating pad before being returned to their holding rooms.
Approximately 18 to 20 hours following surgery, the animals were weighed and the carotid artery catheter on each animal was connected to a transducer for recording arterial pressure. Arterial pressure and heart rate was recorded using a Biopac MP-100 Acquisition System. Animals were allowed to acclimate and stabilize for a period of 20 minutes.
Each animal was challenged with methylcholine (MCh) (0.3 mg/kg, iv) administer through the jugular venous line and the cardiovascular response was monitored for 10 minutes. […] At 1.5 and 24 h post-dosing, the animals were re-challenged with MCh (0.3 mg/kg, iv) and the hemodynamic response was determined. […]

T1 sequence (P20309 whole entry): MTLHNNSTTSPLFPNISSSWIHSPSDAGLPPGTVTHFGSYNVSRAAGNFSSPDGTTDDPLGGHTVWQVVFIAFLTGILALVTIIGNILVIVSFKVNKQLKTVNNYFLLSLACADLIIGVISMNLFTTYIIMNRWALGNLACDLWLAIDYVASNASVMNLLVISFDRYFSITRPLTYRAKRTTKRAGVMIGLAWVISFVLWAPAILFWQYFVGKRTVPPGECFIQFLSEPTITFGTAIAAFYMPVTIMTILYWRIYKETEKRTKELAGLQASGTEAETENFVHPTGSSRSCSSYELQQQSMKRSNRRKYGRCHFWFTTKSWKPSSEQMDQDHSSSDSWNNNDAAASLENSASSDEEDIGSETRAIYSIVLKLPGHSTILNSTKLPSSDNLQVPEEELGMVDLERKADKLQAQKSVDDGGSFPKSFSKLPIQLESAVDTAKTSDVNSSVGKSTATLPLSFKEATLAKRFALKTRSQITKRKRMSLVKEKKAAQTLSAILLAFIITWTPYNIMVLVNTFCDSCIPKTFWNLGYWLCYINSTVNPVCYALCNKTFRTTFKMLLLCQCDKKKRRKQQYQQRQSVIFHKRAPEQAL

As for `CNCCCCCCCCN1CC[C@@H](C(C(N)=O)(c2ccccc2)c2ccccc2)C1` [Example 1, 2-[(S)-1-(8-Methylaminooctyl)pyrrolidin-3-yl]-2,2-diphenylacetamide], the Ki in assay [1] (CHO cell membranes, [3H]-NMS 1 nM, read-out: hM3 binding affinity (Ki)) amounted to 960 pM. In addition, in assay [1] (ratio of hM3 Ki values), the “Δ hM3: change in binding affinity relative to compound of the invention” value was “×2.6”. The “apparent lung-selectivity index (anti-depressor ID50 / bronchoprotective ID50)” value in assay [2] is listed as “greater than 5”.
